Reference: patent publication US12173088B2, “Anti-microbial peptides” (priority 2018, dated 2024)
Converted amounts (≈) assume the structure as drawn. Read-outs that look alike come from different tables or passages of the source. Square brackets hold non-standard residues; d marks the D form. Peptide text beside a SMILES is read from it.

Tests used:
E. coli E423-17 = assay: microbe, parasite or virus in culture; format: cell-based, Escherichia coli; details: E423-17; read-out: MIC E. coli E423-17
Source text: (§1) The bacterial strains used include the Gram-positive strains Staphylococcus aureus USA300 LAC, S. epidermidis 1457, and Bacillus subtilis 168, as well as the Gram-negative isolates Escherichia coli K12 and Acinetobacter baumannii B2367-12. Additional, drug resistance strains include Gram-positive Enterococcus faecium V286-17 (VRE) and S. aureus M838-17 (MRSA) and Gram-negative E. coli E423-17, E. coli E416-17 (ampC), and P. aeruginosa E411-17. Bacteria were cultivated in tryptic soy broth (TSB) (BD Bioscience, MD).
(§2) The antibacterial activity of peptides was evaluated using a standard broth microdilution protocol with minor modifications as described (Mishra, et al. (2012) J. Am. Chem. Soc., 134:12426-12429). In brief, logarithmic phase bacterial cultures (i.e., optical density at 600 nm≈0.5) were diluted to OD600 0.001 and partitioned into a 96-well polystyrene microplate at 90 μL per well. After treatment with 10 μL of peptide solutions two fold diluted to various concentrations, microplates were incubated at 37° C. overnight and read on a ChroMate® 4300 Microplate Reader at 630 nm (GMI, Ramsey, MN). […] To study the influence of medium conditions on the antimicrobial activity of peptides against S. aureus USA300, up to 200 mM sodium chloride (NaCl), 2 mM of calcium chloride, 5-10% of human serum, mouse plasma, fluid, or supernatants of tissue homogenates were included into the assays.
(§3) The bacterial strains used include the Gram-positive bacteria methicillin-resistant Staphylococcus aureus USA300, Enterococcus faecium V286-17 (VRE), S. aureus M838-17 (MRSA) and Gram-negative bacteria E. coli E423-17, E416-7 (ampC), P. aeruginosa E411-17, PA01, K. pneumoniae E406-17, ATCC13883, and A. baumannii B26-16. Bacteria were cultivated in tryptic soy broth (TSB) from BD Bioscience.
(§4) The antibacterial activity of peptides was evaluated using a standard broth microdilution protocol with minor modifications (Mishra, et al. (2017) Acta Biomater., 49:316-328). In brief, logarithmic phase bacterial cultures (i.e., optical density at 600 nm≈0.5) were diluted to 0.001 OD and aliquoted 90 μL per well into a 96-well polystyrene microplate. Added 10 μL peptides per well with various concentrations, plates were incubated at 37° C., overnight. Post incubation the plates are read at 630 nm using a ChroMate® Microplate Reader (GMI). […] To study the influence of medium conditions on the antimicrobial activity of peptides against S. aureus USA300 at different pHs (6.8, 7.2, and 8.0), 150 mM sodium chloride (NaCl), 5-10% of human serum, mouse plasma, and peritoneal fluid were included into the assays.

E. faecium V286-17 (VRE) = assay: microbe, parasite or virus in culture; format: cell-based, Enterococcus faecium; details: V286-17 (VRE)
Source text: as §1, §2, §3, §4

S. aureus USA300 = assay: microbe, parasite or virus in culture; format: cell-based, Staphylococcus aureus
In short: (§5)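 Broth microdilution: log-phase cultures in tryptic soy broth diluted to OD600 0.001, exposed to two-fold diluted peptides at 37° C overnight, growth read at 630 nm. Medium effects on S. aureus USA300 tested with up to 200 mM NaCl, 2 mM CaCl2, 5-10% human serum, mouse plasma, fluids or tissue homogenate supernatants.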

in vivo = details: BALB/c, mouse, plasma, iv, 10 mg/kg
Protocol: The efficacy of the two peptides was also investigated in non-neutropenic mice against S. aureus USA300. A higher bacterial inoculum at 2×10^8 CFU per mouse was used. […] To evaluate the peptide pharmacokinetics (Chhonker, et al. (2018) Biomed. Chromatogr. e4389), the plasma clearance rate of horine after intravenous injection of 10 mg/kg into BALB/c mice was followed.

P. aeruginosa E411-17 = assay: microbe, parasite or virus in culture; format: cell-based, Pseudomonas aeruginosa; details: E411-17; read-out: MIC P. aeruginosa E411-17
Source text: as §1, §2, §3, §4

K. pneumoniae E406-17 = assay: microbe, parasite or virus in culture; format: cell-based, Klebsiella pneumoniae; details: E406-17; read-out: MIC K. pneumoniae E406-17
Protocol: as §2, §3, §4

A. baumannii B26-16 = assay: microbe, parasite or virus in culture; format: cell-based, Acinetobacter baumannii; details: B26-16; read-out: MIC A. baumannii B26-16
Protocol: as §3, §4

P. aeruginosa PAO1 = format: cell-based, Pseudomonas aeruginosa; details: PAO1
In short: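 Broth microdilution in tryptic soy broth: log-phase cultures (OD600 ≈0.5) diluted to OD600 0.001, given two-fold peptide dilutions, incubated overnight at 37° C. Growth read at 630 nm.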

E. coli ATCC 25922 = format: cell-based, Escherichia coli; details: ATCC 25922
In short: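 Broth microdilution: log-phase E. coli diluted to OD600 0.001 and exposed to two-fold serial peptide dilutions overnight at 37 °C. Growth read at 630 nm.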

S. aureus M838-17 (MRSA) = assay: microbe, parasite or virus in culture; format: cell-based, Staphylococcus aureus; details: M838-17; read-out: MIC S. aureus M838-17 (MRSA)
In short: as §5

Hemolytic assay = format: cell-based, human; details: human, human red blood cells, 2% (v/v)
In short: (§6)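 Washed hRBCs (2% v/v) exposed to peptide for 1 h at 37 °C, then centrifuged and hemoglobin in supernatant read at 545 nm. Lysis normalized to Triton X-100 (2% or 1%; 100%) and PBS (0%); HL50 is the peptide concentration giving 50% lysis, and CSI is HL50/MIC.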

[1] = tested on: human red blood cells (hRBCs); assay: Hemolytic assay; format: cell-based
In short: as §6

E. coli ampC E416-7 = format: cell-based, Escherichia coli; details: Table 7
Source text: as §1, §2

CC(C)C[C@@H](NC(=O)[C@@H](Cc1c[nH]c2ccccc12)NC(=O)[C@@H](Cc1c[nH]c2ccccc12)NC(=O)[C@H](N)Cc1c[nH]c2ccccc12)C(=O)N[C@H](CCCNC(=N)N)C(=O)N[C@H](CCCNC(=N)N)C(=O)N[C@H](CCCNC(=N)N)C(=O)N[C@H](Cc1c[nH]c2ccccc12)C(N)=O [D-horine] (H-[dW][dW][dW][dL][dR][dR][dR][dW]-NH2; N-terminus and C-terminus assumed)
MIC (E. coli E423-17): 16 µM (≈ 21.5 µg/mL)
MIC (E. faecium V286-17 (VRE); read-out: MIC E. faecium V286-17 (VRE)): 4 µM (≈ 5.37 µg/mL)
MIC (S. aureus USA300; USA300, read-out: MIC S. aureus USA300 (MRSA)): 4 µM (≈ 5.37 µg/mL)
level at 5 min (in vivo): 192 µg/mL
level at 24 h (in vivo): 0.17 µg/mL
MIC (P. aeruginosa E411-17): 32 µM (≈ 43 µg/mL)
MIC (K. pneumoniae E406-17): >32 µM
MIC (A. baumannii B26-16): >32 µM

CC(C)C[C@H](NC(=O)[C@H](CC(C)C)NC(=O)[C@H](CCCCN)NC(=O)[C@H](CC(C)C)NC(=O)CNC(=O)[C@H](CC(C)C)NC(=O)[C@H](CO)NC(=O)[C@H](CC(C)C)NC(=O)[C@H](CC(C)C)NC(=O)[C@H](CC(C)C)NC(=O)[C@H](CO)NC(=O)[C@H](CC(C)C)NC(=O)CN)C(N)=O [DFT503, GLSLLLSLGLKLL] (H-GLSLLLSLGLKLL-NH2; N-terminus and C-terminus assumed)
MIC PA (P. aeruginosa PAO1) (P. aeruginosa PAO1): >25 µM
MIC EC (E. coli ATCC 25922) (E. coli ATCC 25922): >25 µM
MIC (E. coli E423-17): >50 µM
MIC E. faecium V286-17 (VRE) (E. faecium V286-17 (VRE)): 3.1 to 6.25 µM
MIC (S. aureus USA300; 1 mM Ca2+): 1.56 µM (≈ 2.09 µg/mL)
MIC (S. aureus USA300; 2 mM Ca2+): 1.56 µM (≈ 2.09 µg/mL)
MIC (S. aureus USA300; 50 mM NaCl): 1.56 to 3.1 µM
MIC (S. aureus USA300; 100 mM NaCl): 1.56 to 3.1 µM
MIC (S. aureus USA300; No salts added, Table 6, by UV): 1.56 µM
MIC (S. aureus USA300; USA300): 3.1 µM (≈ 4.15 µg/mL)
MIC SA (S. aureus USA300) (S. aureus USA300; USA300): 1.6 µM (≈ 2.14 µg/mL)
MIC (S. aureus USA300; USA300, pH 6.8): 3.1 µM (≈ 4.15 µg/mL)
MIC (S. aureus USA300; USA300, pH 7.4): 3.1 to 6.2 µM
MIC (S. aureus USA300; USA300, pH 8): 3.1 µM (≈ 4.15 µg/mL)
MIC (S. aureus M838-17 (MRSA)): 3.1 µM (≈ 4.15 µg/mL)
HC50 at 1 h (Hemolytic assay): > 300 µM
HL50, peptide concentration for 50% hemolysis [1]: >300 µM
MIC E. coli ampC E416-7 (E. coli ampC E416-7): >50 µM
MIC (P. aeruginosa E411-17): >50 µM
MIC (K. pneumoniae E406-17): >50 µM
